{"source": "patent EP0414931B1", "about": "“Hypotensive agent” (TANABE SEIYAKU CO., LTD., priority 1989, dated 1991)", "key": {"SHR [1]": {"tested_on": "SHR", "assay": "Antihypertensive activity in SHR, repeated administration (tail-cuff method)", "type": "in vivo, rats", "details": "for Systolic blood pressure: SHR 5 weeks old", "protocol": "(§1) A suspension of the test compound (1) in water containing a small amount of Tween 80 was administered orally in a volume of 10 ml/kg (a dose of the test compound: 100 mg/kg/day) once a day for 4 weeks to SHR (5 weeks old, weight; about 100 g, 10 rats/group) in the test compound-administered group. On the other hand, the same amount of water containing a small amount of Tween 80 was administered to the rats in control group instead of the suspension of the test compound (1). The systolic blood pressure of rats of the both groups was measured once a week until the fifth week by the tail-cuff method."}, "[2]": {"tested_on": "established DOCA-salt hypertensive rats", "assay": "Antihypertensive activity in DOCA-salt rats in the established hypertension condition (tail-cuff method)", "type": "in vivo", "protocol": "(§2) A left kidney was taken out from male SD rats (6 weeks old, weight; about 200 g, 10 rats/group), and 1 week later, silicon resin containing 150 mg/kg of deoxycorticosterone acetic acid (DOCA) was embedded in subcutaneous tissue at the back of each rat under ether anesthesia. After operation, the rats were provided with water containing 1 % sodium chloride and 0.2 % potassium chloride as drinking water in order to produce DOCA-salt rats. From the next day after operation of embedding the silicon resin containing DOCA, a suspension of the test compound (I) in water containing a small amount of Tween 80 was administered orally in a volume of 10 ml/kg (a dose of the test compound: 50 mg/kg/day) once a day for 4 weeks in the test compound-administered group. On the other hand, the same amount of water containing a small amount of the Tween 80 was administered in the control group instead of the suspension of the test compound (1). The systolic blood pressure of rats in the both groups was measured once a week until the fourth week by the tail-cuff method.\nas §1\nThe DOCA-salt loaded rats being in the stable hypertensive condition were obtained by feeding the DOCA-salt loaded rats used in Experiment 2 with tap water instead of aqueous salt solution for 6 weeks. Using these established DOCA-salt hypertensive rats (8 rats/group), the same experiments were carried out as Experiment 3 except that the dose of the test compound (1) was 50 mg/kg/day, the period of administration was 3 weeks, and the systolic blood pressure was measured until the fourth week after administration."}, "established-SHR": {"tested_on": "established-SHR", "assay": "Antihypertensive activity in SHR in the established hypertension condition (tail-cuff method)", "type": "in vivo, rats", "details": "for Systolic blood pressure: 100 mg/kg/day orally once a day for 3 weeks, established-SHR 18 weeks old", "protocol": "as §1\nUsing the SHR being in the established hypertension (established-SHR, 18 weeks old, weight; 300 to 375 g, 8 rats/group), the same procedures were carried out as Experiment 3 except that the period of administration of the test compound (1) was 3 weeks, and the systolic blood pressure was measured until the third week after administration."}, "SHR [3]": {"tested_on": "SHR", "assay": "Hypotensive activity in SHR by single administration of test compound (tail-cuff method)", "type": "in vivo, rats", "details": "SHR about 40 weeks old, fasted overnight; for rate of change of the blood pressure: 200 mg/kg orally, single dose, 2 hours after administration against before administration; for decrease of the systolic blood pressure: 200 mg/kg orally once, 2 hours after administration in comparison with before administration", "protocol": "The phenoxyacetic acid derivatives (I) and pharmaceutically acceptable salts thereof, which are the active ingredient for use in the preparation of the hypotensive agent have an excellent hypotensive activity.\nA suspension of a test compound in water containing a small amount of Tween 80 was administered orally in a volume of 1 ml/100 g of rat's weight (a dose of the test compound: 200 mg/kg) to SHR (about 40 weeks old, 4 to 6 rats/group) fasted overnight. The blood pressure before and after administration of the test compound were measured noninvasively by the tail-cuff method, and estimated the rate of the change of the blood pressure 2 hours after administration of the test compound against the blood pressure before administration of the test compound. In both of test compound No. (1) and No. (2), the rate of change of the blood pressure was about -13 %."}, "DOCA-salt rats": {"tested_on": "DOCA-salt rats", "assay": "Antihypertensive activity on progressive hypertension in DOCA-salt rats (tail-cuff method)", "type": "in vivo, male SD rats", "details": "for Systolic blood pressure: 50 mg/kg/day orally once a day for 4 weeks", "protocol": "as §2"}}, "note": "Marks after values point to notes of the source that are not given here.", "data": [{"molecule": "CCn1nccc1C(=O)c1ccc(OCC(=O)O)c(Cl)c1Cl", "note": "[(1), [2,3-dichloro-4-(1-ethyl-5-pyrazolylcarbonyl)phenoxy]acetic acid]", "values": [{"measurement": "increase of blood pressure as compared with control group", "setting": "SHR [1]; 100 mg/kg/day orally for 4 weeks, result in words", "result": "inhibited significantly from the first week after administration"}, {"measurement": "Systolic blood pressure", "setting": "SHR [1]; day 0, 100 mg/kg/day orally once a day for 4 weeks", "result": 131.2, "unit": "mmHg"}, {"measurement": "Systolic blood pressure", "setting": "SHR [1]; day 7, 100 mg/kg/day orally once a day for 4 weeks", "result": "141.0** mmHg"}, {"measurement": "Systolic blood pressure", "setting": "SHR [1]; day 14, 100 mg/kg/day orally once a day for 4 weeks", "result": "161.9** mmHg"}, {"measurement": "Systolic blood pressure", "setting": "SHR [1]; day 21, 100 mg/kg/day orally once a day for 4 weeks", "result": "175.4** mmHg"}, {"measurement": "Systolic blood pressure", "setting": "SHR [1]; day 28, 100 mg/kg/day orally once a day for 4 weeks", "result": "185.2** mmHg"}, {"measurement": "Systolic blood pressure", "setting": "SHR [1]; day 35 (one week after the 4-week dosing), 100 mg/kg/day orally", "result": "198.4** mmHg"}, {"measurement": "blood pressure in comparison with control group", "setting": "[2]; 50 mg/kg/day orally for 3 weeks, result in words", "result": "decreased significantly from the second week after administration"}, {"measurement": "Systolic blood pressure", "setting": "[2]; day 0, 50 mg/kg/day orally once a day for 3 weeks", "result": 171.1, "unit": "mmHg"}, {"measurement": "Systolic blood pressure", "setting": "[2]; day 7, 50 mg/kg/day orally once a day for 3 weeks", "result": 167.4, "unit": "mmHg"}, {"measurement": "Systolic blood pressure", "setting": "[2]; day 14, 50 mg/kg/day orally once a day for 3 weeks", "result": "168.1* mmHg"}, {"measurement": "Systolic blood pressure", "setting": "[2]; day 28 (one week after the 3-week dosing), 50 mg/kg/day orally", "result": "170.7* mmHg"}, {"measurement": "blood pressure in comparison with control group", "setting": "established-SHR; 100 mg/kg/day orally for 3 weeks, result in words", "result": "decreased significantly from the first week after administration"}, {"measurement": "Systolic blood pressure", "setting": "established-SHR; day 0", "result": 207.3, "unit": "mmHg"}, {"measurement": "Systolic blood pressure", "setting": "established-SHR; day 7", "result": "189.6* mmHg"}, {"measurement": "Systolic blood pressure", "setting": "established-SHR; day 14", "result": "201.8* mmHg"}, {"measurement": "Systolic blood pressure", "setting": "established-SHR; day 21", "result": "198.6* mmHg"}, {"measurement": "rate of change of the blood pressure", "setting": "SHR [3]", "result": "about -13%"}, {"measurement": "increase of blood pressure as compared with control group", "setting": "DOCA-salt rats; 50 mg/kg/day orally for 4 weeks, result in words", "result": "inhibited significantly from the second week after administration"}, {"measurement": "Systolic blood pressure", "setting": "DOCA-salt rats; day 0", "result": 121.6, "unit": "mmHg"}, {"measurement": "Systolic blood pressure", "setting": "DOCA-salt rats; day 7", "result": 140.3, "unit": "mmHg"}, {"measurement": "Systolic blood pressure", "setting": "DOCA-salt rats; day 14", "result": "165.0* mmHg"}, {"measurement": "Systolic blood pressure", "setting": "DOCA-salt rats; day 21", "result": "182.0* mmHg"}, {"measurement": "Systolic blood pressure", "setting": "DOCA-salt rats; day 28", "result": "193.3* mmHg"}]}, {"molecule": "CCn1nccc1C(=O)c1ccc(OCC(=O)O)c(Cl)c1Cl", "note": "[[2,3-dichloro-4(1-ethyl-5-pyrazolylcarbonyl)phenoxy]acetic acid]", "values": [{"measurement": "decrease of the systolic blood pressure", "setting": "SHR [3]", "result": "about 13%"}]}, {"molecule": "CCOCn1nccc1C(=O)c1ccc(OCC(=O)O)c(Cl)c1Cl", "note": "[[2,3-dichloro-4-(1-ethoxymethyl-5-pyrazolylcarbonyl)phenoxy]acetic acid]", "values": [{"measurement": "decrease of the systolic blood pressure", "setting": "SHR [3]", "result": "about 13%"}]}, {"molecule": "CCOCn1nccc1C(=O)c1ccc(OCC(=O)O)c(Cl)c1Cl", "note": "[(2), [2,3-dichloro-4-(1-ethoxymethyl-5-pyrazolylcarbonyl)phenoxy]acetic acid]", "values": [{"measurement": "rate of change of the blood pressure", "setting": "SHR [3]", "result": "about -13%"}]}]}
